# Values of other authors, collected in patent US20060163529A1, “Water-based coolant fluid for engine applications” (Neste Oil Oyj, priority 2002, published 2006).
# Test system: rats
# Settings: tested orally in rats
row,Compound,LD50
1,"CC(O)CO (centres unmarked) [Propylene glycol, propylene glycol]",20 000 mg/kg
2,"C[N+](C)(C)CC(=O)O [Trimethyl glycine, trimethyl glycine]",11 200 mg/kg
